# Results taken from patent publication US11318153B2, “Method of using Neoandrographolide for lowering blood sugar, lowering blood lipid, improving liver function and improving renal function” (Bioalpha International Sdn. Bhd., priority 2018, dated 2022).
# What was measured:
# Format in all cases: in vivo
# [1] = system: induced type 2 diabetic mice; assay: Glycated hemoglobin (HbA1c) assay; settings: NeoL 2.5, NeoM 5.0, NeoH 10 mg/kg; after 42 days of continuous administration; vs induction treatment group STZ
# Experimental: (§1) Male ICR mice (19-21 g) were obtained from BioLASCO Taiwan Co., Ltd. The mice were kept in the animal center of Transworld University at a controlled temperature of 22±2° C., relative humidity 55±5%, and with 12 hour light/12 hour dark cycles for 1 week before the experiment. For the induction of type 2 diabetic mice (induction treatment group STZ), Nicotinamide (210 mg/kg b.w.) (Sigma, Saint Louis, Mo., USA), dissolved in saline was intraperitoneally injected into mice. After 15 minutes, the mice were administered with […] (STZ) (Sigma, 180 mg/kg bw, ip injection), which was dissolved in citrate buffer (pH 4.5) before use. The control group received both vehicles. During the experimental period, the animals' food intake and body weight were monitored once a week. […]
# In this experimental example, the glycated hemoglobin (HbA1c) values of mice were recorded in a 42-day period after continuous administration for the blank group Sham, the induction treatment group STZ, Neoandrographolide low dose group NeoL (2.5 mg/kg), Neoandrographolide middle dose group NeoM (5.0 mg/kg) and Neoandrographolide high dose group NeoH (10 mg/kg).
# [2] = system: induced type 2 diabetic mice; assay: Total cholesterol assay
# Experimental: as §1
# (§2) In this experimental example, the triglyceride values and the total cholesterol in blood of mice were recorded in a 42-day period after continuous administration for the blank group Sham, the induction treatment group STZ, Neoandrographolide low dose group NeoL (2.5 mg/kg), Neoandrographolide middle dose group NeoM (5.0 mg/kg) and Neoandrographolide high dose group NeoH (10 mg/kg).
# [3] = system: induced type 2 diabetic mice; assay: Oral glucose tolerance test; settings: NeoL 2.5, NeoM 5.0, NeoH 10 mg/kg; within 0 to 3 hours after glucose 2 g/kg; vs induction treatment group STZ
# Experimental: as §1, with “week. In addition, the dosage of the Neoandrographolide (Sigma-Aldrich Chemical Co., Missouri, USA) of the present invention is: NeoL (low dose group of Neoandrographolide): Neoandrographolide 2.5 mg/kg; NeoM (middle dose group of Neoandrographolide): Neoandrographolide 5.0 mg/kg; NeoH (high dose group of Neoandrographolide): Neoandrographolide 10 mg/kg. The above active ingredient was dissolved in Tween 20 and adjusted to a 0.5% methylcellulose (CMC) solution. The blank group (Sham) was normal mice without induction treatment.” for “week.”
# [4] = system: induced type 2 diabetic mice; assay: Uric acid assay; settings: NeoL 2.5, NeoM 5.0, NeoH 10 mg/kg; after 42 days of continuous administration; vs induction treatment group STZ
# Experimental: as §1
# In this experimental example, the serum uric acid index of mice was recorded in a 42-day period after continuous administration for the blank group Sham, the induction treatment group STZ, Neoandrographolide low dose group NeoL (2.5 mg/kg), Neoandrographolide middle dose group NeoM (5.0 mg/kg) and Neoandrographolide high dose group NeoH (10 mg/kg).
# [5] = system: induced type 2 diabetic mice; assay: Serum creatinine assay; settings: NeoL 2.5, NeoM 5.0, NeoH 10 mg/kg; after 42 days of continuous administration; vs induction treatment group STZ
# Experimental: as §1
# In this experimental example, the serum creatine index of mice was recorded in a 42-day period after continuous administration for the blank group Sham, the induction treatment group STZ, Neoandrographolide low dose group NeoL (2.5 mg/kg), Neoandrographolide middle dose group NeoM (5.0 mg/kg) and Neoandrographolide high dose group NeoH (10 mg/kg).
# [6] = system: induced type 2 diabetic mice; assay: Triglyceride assay
# Experimental: (§3) Male ICR mice (19-21 g) were obtained from BioLASCO Taiwan Co., Ltd. The mice were kept in the animal center of Transworld University at a controlled temperature of 22±2° C., relative humidity 55±5%, and with 12 hour light/12 hour dark cycles for 1 week before the experiment. For the induction of type 2 diabetic mice (induction treatment group STZ), Nicotinamide (210 mg/kg b.w.) (Sigma, Saint Louis, Mo., USA), dissolved in saline was intraperitoneally injected into mice. After 15 minutes, the mice were administered with […] (STZ) (Sigma, 180 mg/kg bw, ip injection), which was dissolved in citrate buffer (pH 4.5) before use. The control group received both vehicles. During the experimental period, the animals' food intake and body weight were monitored once a week. In addition, the dosage of the Neoandrographolide (Sigma-Aldrich Chemical Co., Missouri, USA) of the present invention is: NeoL (low dose group of Neoandrographolide): Neoandrographolide 2.5 mg/kg; NeoM (middle dose group of Neoandrographolide): Neoandrographolide 5.0 mg/kg; NeoH (high dose group of Neoandrographolide): Neoandrographolide 10 mg/kg. The above active ingredient was dissolved in Tween 20 and adjusted to a 0.5% methylcellulose (CMC) solution. The blank group (Sham) was normal mice without induction treatment.
# (§4) After completion of the test, surviving animals were sacrificed; before necropsy, blood samples were collected for serum biochemistry.
# as §2
# [7] = system: induced type 2 diabetic mice; assay: Fasting blood glucose assay; settings: NeoL 2.5, NeoM 5.0, NeoH 10 mg/kg; seven days after administration; vs induction treatment group STZ
# Experimental: as §1
# In this experimental example, the fasting blood glucose values were recorded in a 42-day period for the blank group Sham, the induction treatment group STZ, Neoandrographolide low dose group NeoL (2.5 mg/kg), Neoandrographolide middle dose group NeoM (5.0 mg/kg) and Neoandrographolide high dose group NeoH (10 mg/kg).
# [8] = system: induced type 2 diabetic mice; assay: Aspartate aminotransferase (AST) assay
# Experimental: as §3, §4
# In this experimental example, the AST index of mice were recorded in a 42-day period after continuous administration for the blank group Sham, the induction treatment group STZ, Neoandrographolide low dose group NeoL (2.5 mg/kg), Neoandrographolide middle dose group NeoM (5.0 mg/kg) and Neoandrographolide high dose group NeoH (10 mg/kg).
# [9] = system: induced type 2 diabetic mice; assay: Water intake test in induced type 2 diabetic mice; settings: high dose 10 mg/kg and low dose 2.5 mg/kg; 40-day period; vs induction treatment group STZ
# Experimental: as §1
# In general, diabetic patients usually have clinical symptoms of “drinking more water.” In this experimental example, the water intake was recorded in a 40-day period for the blank group Sham, the induction treatment group STZ, Neoandrographolide low dose group NeoL (2.5 mg/kg), Neoandrographolide middle dose group NeoM (5.0 mg/kg) and Neoandrographolide high dose group NeoH (10 mg/kg).
# [10] = NeoL 2.5, NeoM 5.0, NeoH 10 mg/kg, after 42 days of continuous administration, vs induction treatment group STZ
structure (smiles),measurement,setting,value
C=C1CC[C@@H]2[C@](C)(CO[C@@H]3O[C@H](CO)[C@@H](O)[C@H](O)[C@H]3O)CCC[C@@]2(C)[C@@H]1CCC1=CCOC1=O [Neoandrographolide],HbA1c values,[1],significantly lower
same,"minimum effective dose, lowering total cholesterol in the blood",[2]; 42 days,2.5 mg/kg
same,total cholesterol values in the blood,[2]; [10],lower
same,blood glucose levels in oral glucose tolerance test,[3],significantly lower
same,serum uric acid index,[4],significantly lower
same,serum creatinine index,[5],significantly lower
same,dose dependence of triglyceride-lowering effect,"[6]; 2.5 to 10 mg/kg, 42 days",dose-dependent
same,"minimum effective dose, triglyceride-lowering effect",[6]; 42 days,2.5 mg/kg
same,triglyceride values,[6]; [10],lower
same,"triglyceride values, middle and high dose groups","[6]; NeoM 5.0 mg/kg and NeoH 10 mg/kg, 42 days, compared among the three dose groups",lowest triglyceride values
same,fasting blood glucose values,[7],significantly lower
same,"AST values, low dose group","[8]; NeoL 2.5 mg/kg, 42 days, compared among the three dose groups",most significant reduction
same,AST index,[8]; [10],slightly lower
same,"minimum effective dose, improving liver function (AST)",[8]; judged from the experiment,around 2.5 mg/kg
same,amount of water intake,[9],significantly reduced
